Test results taken from article PMC4501059, “Responding to the challenge of untreatable gonorrhea: ETX0914, a first-in-class agent with a distinct mechanism-of-action against bacterial Type II topoisomerases” (Scientific Reports, 2015).
In brackets after ≈: the same amount, converted by molar mass. Read-outs that look alike come from different tables or passages of the source.

Legend:
[1] = system: S. pneumoniae ARC2205 (ERQR); test: MIC (CLSI broth microdilution); format: cell-based
[2] = system: N. gonorrhoeae ATCC49226; test: MIC (CLSI agar dilution); format: cell-based
[3] = molecular target: S. aureus Topo IV (Staphylococcus aureus, UniProt P0C1S7+P0C1U9); test: S. aureus Topo IV cleaved complex ligation assay; format: biochemical; conditions: free Mg2+ 0.06 μM to 8 mM
[4] = system: DNA gyrase or Topo IV; test: Malachite Green based ATPase assays; format: biochemical
[5] = hepatocyte intrinsic clearance; format: in vitro ADME; conditions: female, CD-1, mouse hepatocytes
Source text: Supplement srep11827-s1.doc, table 4 | column: CD-1 mouse (female)

[6] = hepatocyte intrinsic clearance; format: in vitro ADME; conditions: male, Han-Wister, rat hepatocytes
Source text: Supplement srep11827-s1.doc, table 4 | column: Han-Wister rat (male)

[7] = hepatocyte intrinsic clearance; format: in vitro ADME; conditions: male, Beagle, dog hepatocytes
Source text: Supplement srep11827-s1.doc, table 4 | column: Beagle dog (male)

[8] = Single dose pharmacokinetics, mouse; format: in vivo, CD-1 mouse
Experimental: AZD0914 was analyzed in mouse, rat, dog, monkey plasma using a qualified method which was later validated for human plasma analysis. The validated human method is described below and is representative of the approach taken in other species. AZD0914 was determined in human plasma prepared with K2EDTA as an anticoagulant. AZD0914 and an internal standard (^13C2, ^15N2 AZD0914) were extracted from plasma with tert- butyl methyl ether. After evaporating to dryness under a stream of nitrogen, the residue was reconstituted and quantitated by reverse phase HPLC-MS/MS against a standard curve from 1.00 to 5000 ng/ml. Separation was achieved using a gradient which went from 55% to 85% methanol:acetonitrile (1:1) containing 0.2% formic acid as mobile phase B and 0.2% formic acid in water as mobile phase A at a flow rate of 0.60 ml/min through a Phenomonex Gemini C18 column (50 x 2.0 mm column, […]) heated using a Shimadzu CTO-20AC set to 40 °C. AZD0914 was detected in multiple reaction monitoring (MRM) mode by positive ion electrospray ionization using a Sciex API5500 (Toronto, Canada) mass spectrometer. The ion spray voltage was set to 5500 V and turboionspray temperature was 650 °C. AZD0914 was quantitated using the MRM transition 488.2 → 348.2 using a collision energy of 29 eV. The internal standard, (^13C2, ^15N2 AZD0914), was monitored using identical conditions except for the MRM transition of 492.2 → 348.2.

[9] = Quantitative whole-body autoradiography, tissue distribution of radioactivity; format: in vivo, male pigmented Lister Hood rat; conditions: rat plasma after iv infusion of 14C label
Experimental: Quantitative whole-body autoradiography. The distribution of radioactivity in male, pigmented Lister Hood rat tissues was obtained after a single intravenous infusion over 15 minutes of ^14C-AZD0914 at 25 mg/kg (51 μmol/kg, 5 MBq/kg) using quantitative whole-body autoradiography with phosphor-imaging technology. The potential of this compound and/or its metabolites to bind to melanin-containing tissues and/or to potentially bind covalently to tissues was also evaluated. The rats were sacrificed at 5 minutes, 1 hour, 4 hours, 24 hours, 48 hours, 7 days and 21 days after the end of infusion with enflurane (Efrane®, Abbott Laboratories, USA), and frozen in acetone, cooled to -70 °C with solid CO2. The 7- and 21- day animals could not be quantified as no trace of radioactivity was observed. After removal of limbs and tail, the carcass was embedded, with left lateral side uppermost, in a 2.5% (w/v) aqueous solution of caramellosum natricum and frozen for at least 10 minutes. The animal blocks were stored at -20 °C until sectioning. Sagittal whole-body sections (30 μm) were obtained to include organs and tissues of interest. At sectioning each block was mounted in a Leica CM3600 Cryomacrotome (Leica Microsystems GmbH, Germany) maintained at approximately -20 °C. All sections were dried at -20 °C for at least 1 day prior to exposure on phosphor-imaging plates. Together with two sets of calibration standards, the sections were placed on phosphor-imaging plates, which had been pre-covered with a thin plastic film. The imaging plates were exposed for 1 to 3 days at +4 to +12 °C, enclosed in light tight cassettes in a lead shielding box to protect from environmental radiation. Following exposure, the imaging plates were scanned at a pixel size of 50 μm using FLA-7000 (FujiFilm Sverige AB, Sweden). The tissues and organs of interest were quantified using AIDA 3.5 (Raytest, Germany). The quantification limit was defined as twice the background value of the imaging plate and varied between the plates from 0.23 to 0.33 nmol/g. The various tissues and organs were identified either on the autoradiograms or on the corresponding tissue sections.

[10] = molecular target: S. aureus DNA gyrase (Staphylococcus aureus, UniProt P0A0K8+P20831); conditions: free Mg2+ 0.06 μM to 8 mM
[11] = system: Streptococcus pyogenes; parameters: method as in ref 2 (supplement); conditions: 1358 tested; ref 2 (supplement); cited from earlier work
[12] = system: Streptococcus agalactiae; parameters: method as in ref 2 (supplement); conditions: 441 tested; ref 2 (supplement); cited from earlier work
[13] = system: Haemophilus influenzae; parameters: method as in ref 2 (supplement); conditions: 352 tested; ref 2 (supplement); cited from earlier work
[14] = physchem
[15] = system: S. aureus; conditions: 4X MIC, various strains; cited from earlier work
[16] = molecular target: hERG (Homo sapiens, UniProt Q12809); test: In vitro ion channel function
[17] = comparative haematology analysis in the rat, oral dosing; conditions: for AUC: Han Wistar, in vivo, po; for AUC / haematology versus vehicle control: rat; for haematology versus vehicle control: 28 d

SMILES: C[C@@H]1CN2c3c(cc4c(N5C(=O)OC[C@@H]5C)noc4c3F)CC3(C(=O)NC(=O)NC3=O)[C@H]2[C@H](C)O1 [ETX0914]
- MIC: S. pneumoniae ARC2205 (ERQR) [1]: 0.125 µg/mL (≈ 0.256 µM)
- MIC: N. gonorrhoeae ATCC49226 [2]: 0.125 µg/mL (≈ 0.256 µM)
- re-ligation of inhibitor-induced cleaved DNA on removal of Mg2+ [3]: No ligation is observed
- inhibition of ATPase activity [4]: lack of inhibition of ATPase activity
- hepatocyte CLint at 1 µM [5]: 7 µL/min/1e6 cells
- hepatocyte CLint at 1 µM [6]: 10 µL/min/1e6 cells
- hepatocyte CLint at 1 µM [7]: 3.8 µL/min/1e6 cells
- clearance ([8]; CD-1, plasma, mouse, ABT pre-dosing, read-out: CLp after pre-dosing with 1-aminobenzotriazole (ABT)): 15 mL/min/kg
- Ka ([8]; CD-1 mouse (female)): 1.7 h⁻¹
- lowering of CLp by ABT pre-dosing ([8]; mouse): ~5 fold
- clearance ([8]; plasma, CD-1 mouse (female), IV 3 mg/kg, read-out: Clp (IV)): 70 mL/min/kg
- half-life ([8]; plasma, CD-1 mouse (female), IV 3 mg/kg, read-out: T1/2 (IV) (converted)): 0.5 h
- Vd ([8]; plasma, CD-1 mouse (female), IV 3 mg/kg, read-out: Vss (IV)): 3.6 L/kg
- bioavailability ([8]; plasma, CD-1 mouse (female), IV 3 / PO 10 mg/kg): 46%
- Cmax ([8]; plasma, CD-1 mouse (female), PO 10 mg/kg): 1700 nM
- half-life ([8]; plasma, CD-1 mouse (female), PO 10 mg/kg, read-out: T1/2 (PO) (converted)): 1.6 h
- share of circulating radioactivity in plasma accounted for by parent [9]: ~ 90%
- re-ligation of inhibitor-induced cleaved DNA on removal of Mg2+ [10]: re-ligation remained blocked
- re-ligation of inhibitor-induced cleaved DNA on removal of Mg2+ ([10]; listed as AZD0914): No ligation is observed
- MIC90 [11]: 0.25^2 µg/ml
- MIC Range [11]: ≤ 0.015 to 0.5 µg/mL
- MIC90 [12]: 0.25^2 µg/ml
- MIC Range [12]: 0.03 to 0.5 µg/mL
- MIC90 [13]: 0.5^2 µg/ml
- MIC Range [13]: 0.03 to 2.0 µg/mL
- solubility [14]: 390 µM (≈ 190 µg/mL)
- frequency of resistance [15]: < 1.1 × 10^−9
- IC50 ([16]; hERG IC50, K^+ rectifying current/QT interval): 316 µM
- margin of ion channel IC50 relative to Cmax ([16]; ion channels including hERG, Cmax at highest 4000 mg Phase 1 dose): greater than 10 fold
- AUC ([17]; 200 mg/kg): 1100 ± 130 µM·h
- AUC ([17]; 500 mg/kg): 2460 ± 470 µM·h
- AUC ([17]; 1000 mg/kg): 3820 ± 650 µM·h
- platelet count ([17]; data not shown): no significant changes in platelet count
- haematology versus vehicle control ([17]; 2 lower doses (200, 500 mg/kg)): within statistical equivalence of the vehicle control
- haematology versus vehicle control ([17]; highest dose (1000 mg/kg)): statistical elevation in reticulocytes, lymphocytes and white blood cells
